Assay results reported in PMC6211254, “Determination of the inhibitory effects of N-methylpyrrole derivatives on glutathione reductase enzyme” (Journal of Enzyme Inhibition and Medicinal Chemistry, 2018).
Values joined by “and” are separate entries in the source; they are usually repeats but may differ in a detail not shown here. Equal entries are not always repeated.

Molecular target: T1, GR from baker's yeast (S. cerevisiae) (Saccharomyces cerevisiae, UniProt P41921)
T1 sequence (P41921 17-483 limits assumed): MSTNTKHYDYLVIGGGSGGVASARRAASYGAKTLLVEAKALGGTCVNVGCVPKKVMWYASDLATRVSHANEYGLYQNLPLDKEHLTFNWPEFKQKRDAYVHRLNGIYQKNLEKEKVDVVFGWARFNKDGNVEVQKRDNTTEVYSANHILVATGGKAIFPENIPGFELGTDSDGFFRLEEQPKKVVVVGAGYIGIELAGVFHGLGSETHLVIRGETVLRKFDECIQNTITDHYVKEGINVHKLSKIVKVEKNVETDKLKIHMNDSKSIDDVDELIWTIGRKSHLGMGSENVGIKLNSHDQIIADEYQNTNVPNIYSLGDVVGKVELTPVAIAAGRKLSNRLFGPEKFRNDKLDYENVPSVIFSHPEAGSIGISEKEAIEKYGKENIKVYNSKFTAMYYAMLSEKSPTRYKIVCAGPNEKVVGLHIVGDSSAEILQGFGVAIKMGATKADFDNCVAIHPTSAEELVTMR
Experiment: Glutathione reductase inhibition (Beutler's method, NADPH and GSSG as substrates)
Assay type: biochemical
Conditions: 25 °C, pH 8.0; mean from at least three determinations, errors ±3%; read-out: IC50 values obtained from regression analysis graphs for GR enzyme
Method: Activity of the glutathione enzyme was measured by Beutler’s method[22] in which one enzyme unit is defined as the oxidation of […] NADPH per min under the assay condition at 25 °C, pH 8.0. Different concentrations of the inhibitors were applied to the enzyme solutions and all compounds were tested in triplicate at each concentration used[18–21]. Control cuvette activity was assumed as 100% in the absence of inhibitor. A graphic of activity-versus inhibitor concentration was drawn for each compound (Figure 3).
In this work, we reported GR inhibitory capacity of N-methylpyrrole derivatives (8a-r). As known, glutathione reductase has been purified from various organisms and the influences of drugs, pesticides and various chemicals on GR activity have been investigated. In the current study, GR from baker's yeast (S. cerevisiae) was used and the inhibitory potentials of the synthetized compounds were determined using Beutler method with NADPH and GSSG as substrates and further kinetic studies were performed using the same method.

| SMILES | IC50 |
| --- | --- |
| Cn1cccc1-c1ccc(C#N)cc1 [Compound 8r] | 1790 nM |
| Cn1cccc1-c1ccc(Br)cc1 [Compound 8e] | 1500 nM |
| O=NN(CCCl)C(=O)NCCCl [N,N-bis(2-chloroethyl)-N-nitrosourea, reference compound] | 645000 nM |
| COc1ccc(-c2cccn2C)cc1 [Compound 8o] | 678 nM and 1440 nM |
| Cn1cccc1-c1ccc(OC(F)(F)F)cc1 [Compound 8q] | 846 nM |

Next, values leading:

| IC50 | SMILES |
| --- | --- |
| 1420 nM | Cn1cccc1-c1ccc(F)cc1 [Compound 8i] |
| 4940 nM | Cn1cccc1-c1ccccc1 [Compound 8a] |
| 1400 nM | Cc1ccc(-c2cccn2C)cc1 [Compound 8b] |
| 678 nM | COc1ccccc1-c1cccn1C [Compound 8n] |
| 1050 nM | Cc1ccccc1-c1cccn1C [Compound 8d] |
| 104 nM | Cn1cccc1-c1ccccc1[N+](=O)[O-] [Compound 8m] |
| 1660 nM | Cc1cccc(-c2cccn2C)c1 [Compound 8c] |
